Activity calls are given as the source filed them. No cut-off for these calls is given here.
Columns and labels:
Staphylococcus aureus [1] = assay: Antibacterial activity against methicillin-resistant Staphylococcus aureus assessed as bacterial growth inhibition; format: functional
[2] = Hemolytic activity in mammalian RBC assessed as hemolysis; format: toxicity, cell-based, Erythrocyte; conditions: mammalia, mammalian red blood cells
[3] = Selectivity index, ratio of HC50 for hemolytic activity in mammalian RBC to MIC for antibacterial activity against methicillin-resistant Staphylococcus aureus assessed as bacterial growth inhibition; format: toxicity; conditions: mammalian red blood cells
Staphylococcus aureus [4] = assay: Antibacterial activity against methicillin-resistant Staphylococcus aureus assessed as bacterial growth inhibition incubated for 18 hrs by CLSI protocol based Mueller-Hinton broth assay; format: functional; conditions: Staphylococcus aureus, read-out: MIC
Enterococcus faecalis [5] = assay: Antibacterial activity against Enterococcus faecalis assessed as bacterial growth inhibition incubated for 18 hrs by CLSI protocol based Mueller-Hinton broth assay; format: functional; conditions: Enterococcus faecalis, 18 h, read-out: MIC
Escherichia coli [6] = assay: Antibacterial activity against Escherichia coli assessed as bacterial growth inhibition incubated for 18 hrs by CLSI protocol based Mueller-Hinton broth assay; format: functional; conditions: Escherichia coli, read-out: MIC
[7] = tested on: Stenotrophomonas maltophilia; assay: Antibacterial activity against Stenotrophomonas maltophilia assessed as bacterial growth inhibition incubated for 18 hrs by CLSI protocol based Mueller-Hinton broth assay; format: functional; conditions: Stenotrophomonas maltophilia, read-out: MIC
[8] = Hemolytic activity in sheep RBC assessed as hemolysis incubated for 1 hr by microplate reader method; format: toxicity, cell-based, Ovis aries, Erythrocyte; conditions: sheep red blood cells
[9] = Selectivity index, ratio of HC50 for hemolytic activity in sheep RBC to MIC for antibacterial activity against methicillin-resistant Staphylococcus aureus assessed as bacterial growth inhibition; format: toxicity; conditions: sheep red blood cells
[10] = Cytotoxicity against HUVEC cells assessed as reduction in cell viability incubated for 72 hrs by CCK8 assay; format: toxicity, cell-based; conditions: human
[11] = Hemolytic activity in human erythrocytes assessed as hemolysis; format: toxicity, cell-based, Erythrocyte
[12] = Selectivity index, ratio of HC50 for hemolytic activity in human erythrocytes to MIC for antibacterial activity against methicillin-resistant Staphylococcus aureus assessed as bacterial growth inhibition; format: toxicity, cell-based
Enterococcus faecalis [13] = assay: Antibacterial activity against Enterococcus faecalis assessed as bacterial growth inhibition; format: functional
Escherichia coli [14] = assay: Antibacterial activity against Escherichia coli assessed as bacterial growth inhibition; format: functional
[15] = tested on: Stenotrophomonas maltophilia; assay: Antibacterial activity against Stenotrophomonas maltophilia assessed as bacterial growth inhibition; format: functional
[16] = Hemolytic activity in mammalian RBC assessed as hemolysis at 320 ug/ml incubated for 1 hr by microplate reader analysis; format: toxicity, cell-based, Erythrocyte; conditions: mammalia, mammalian red blood cells, at 320 µg/mL, read-out: Activity
[17] = Selectivity index, ratio of HC50 for hemolytic activity in sheep RBC to IC50 for antibacterial activity against Enterococcus faecalis assessed as bacterial growth inhibition; format: toxicity; conditions: sheep red blood cells
[18] = Selectivity index, ratio of HC50 for hemolytic activity in sheep RBC to IC50 for antibacterial activity against Escherichia coli assessed as bacterial growth inhibition; format: toxicity; conditions: sheep red blood cells
[19] = Selectivity index, ratio of HC50 for hemolytic activity in sheep RBC to IC50 for antibacterial activity against Salmonella enterica assessed as bacterial growth inhibition; conditions: sheep red blood cells
Staphylococcus aureus [20] = assay: Antibacterial activity against methicillin-resistant Staphylococcus aureus clinical isolates assessed as bacterial growth inhibition incubated for 18 hrs by CLSI protocol based Mueller-Hinton broth assay; format: functional
Enterococcus faecium = assay: Antibacterial activity against Enterococcus faecium clinical isolates assessed as bacterial growth inhibition incubated for 18 hrs by CLSI protocol based Mueller-Hinton broth assay; format: functional
Escherichia coli [21] = assay: Antibacterial activity against carbapenems-resistant Escherichia coli expressing blaNDM-5 clinical isolates assessed as bacterial growth inhibition incubated for 18 hrs by CLSI protocol based Mueller-Hinton broth assay; format: functional
Escherichia coli [22] = assay: Antibacterial activity against carbapenems-resistant Escherichia coli expressing blaNDM-3 clinical isolates assessed as bacterial growth inhibition incubated for 18 hrs by CLSI protocol based Mueller-Hinton broth assay; format: functional
Escherichia coli [23] = assay: Antibacterial activity against carbapenems-resistant Escherichia coli expressing blaNDM-9 clinical isolates assessed as bacterial growth inhibition incubated for 18 hrs by CLSI protocol based Mueller-Hinton broth assay; format: functional
Citrobacter freundii = assay: Antibacterial activity against carbapenems-resistant Citrobacter freundii expressing blaNDM-1 clinical isolates assessed as bacterial growth inhibition incubated for 18 hrs by CLSI protocol based Mueller-Hinton broth assay; format: functional
Pseudomonas aeruginosa = assay: Antibacterial activity against carbapenems-resistant Pseudomonas aeruginosa expressing blaVIM-1 clinical isolates assessed as bacterial growth inhibition incubated for 18 hrs by CLSI protocol based Mueller-Hinton broth assay; format: functional
Staphylococcus aureus [24] = assay: Bactericidal activity against methicillin-resistant Staphylococcus aureus assessed as decrease in viable count measured up to 4 hrs by time-killing kinetics assay; format: functional, organism-based; conditions: dose 2-4 µg/ml
Staphylococcus aureus [25] = assay: Bactericidal activity against methicillin-resistant Staphylococcus aureus assessed as decrease in viable count at 2 to 4 ug/ml by time-killing kinetics assay; format: functional, organism-based; conditions: dose 2-4 µg/ml, time <= 4.0 hrs, TDE = time-dependent effect
Staphylococcus aureus [26] = assay: Antibacterial activity against methicillin-resistant Staphylococcus aureus assessed as resistance development at 0.5 to 1 ug/ml measured after 20 days by resistance development assay; format: functional, organism-based; conditions: dose 0.5-1 µg/ml, time 20.0 day
Staphylococcus aureus [27] = assay: Induction of cytoplasmic membrane depolarization in methicillin-resistant Staphylococcus aureus assessed as enhancement of fluorescence intensity measured at 1 min interval for 16 mins by DiSC3(5) dye based fluorescence method; format: functional, organism-based; conditions: dose 0.5-16 µg/ml
Staphylococcus aureus [28] = assay: Induction of cytoplasmic membrane depolarization in methicillin-resistant Staphylococcus aureus assessed as fold increase in fluorescence intensity at 16 ug/ml measured at 1 min interval for 16 mins by DiSC3(5) dye based fluorescence method; format: functional; conditions: dose 16 µg/ml
Staphylococcus aureus [29] = assay: Antibacterial activity against methicillin-resistant Staphylococcus aureus assessed as bacterial growth inhibition in presence of phosphatidylglycerol incubated for 18 hrs by checkerboard microdilution assay; format: functional, organism-based
Staphylococcus aureus [30] = assay: Antibacterial activity against methicillin-resistant Staphylococcus aureus assessed as bacterial growth inhibition in presence of phosphoethanolamine incubated for 18 hrs by checkerboard microdilution assay; format: functional, organism-based
Staphylococcus aureus [31] = assay: Antibacterial activity against methicillin-resistant Staphylococcus aureus assessed as bacterial growth inhibition in presence of phosphatidylcholine incubated for 18 hrs by checkerboard microdilution assay; format: functional, organism-based
Staphylococcus aureus [32] = assay: Induction of intracellular ROS accumulation in methicillin-resistant Staphylococcus aureus assessed as increase in fluorescence intensity incubated for 30 mins by DCFH-DA dye based fluorescence assay; format: functional, organism-based; conditions: dose 0.125-8 µg/ml
Staphylococcus aureus [33] = assay: Induction of intracellular ROS accumulation in methicillin-resistant Staphylococcus aureus assessed as fold increase in fluorescence intensity at 0.5 ug/ml incubated for 30 mins by DCFH-DA dye based fluorescence assay; format: functional; conditions: dose 0.5 µg/ml
Staphylococcus aureus [34] = assay: Antibacterial activity against methicillin-resistant Staphylococcus aureus assessed as fold decrease in MIC in presence of NAC incubated for 18 hrs by CLSI protocol based Mueller-Hinton broth assay; format: functional
Staphylococcus aureus [35] = assay: Induction of morphological changes in methicillin-resistant Staphylococcus aureus assessed as appearance of wrinkled cell surface at 8 ug/ml incubated for 4 hrs by SEM analysis; format: functional, organism-based; conditions: dose 8.0 µg/ml
Staphylococcus aureus [36] = assay: Induction of morphological changes in methicillin-resistant Staphylococcus aureus assessed as appearance of shrunken cell surface at 8 ug/ml incubated for 4 hrs by SEM analysis; format: functional, organism-based; conditions: dose 8.0 µg/ml
[37] = Toxicity in HUVEC cells assessed as morphological changes at 16 ug/ml incubated for 24 hrs by optical microscopy imaging analysis; format: cell-based; conditions: human, dose 16 µg/ml
[38] = Toxicity in HUVEC cells assessed as live cells by measuring increase in green fluorescence at 16 ug/ml incubated for 24 hrs by calcein AM and propidium iodide staining based fuorescence microscopic analysis; format: cell-based; conditions: human, dose 16 µg/ml
[39] = Toxicity in SPF Kunming mouse assessed as lethal dose administered for 3 days; conditions: in vivo, 72 h, time 3 day
[40] = Metabolic stability in SPF Kunming mouse assessed as half life at 5 mg/kg/day, iv; format: ADME, organism-based; conditions: in vivo
Staphylococcus aureus [41] = assay: In vivo antibacterial activity against methicillin-resistant Staphylococcus aureus infected in SPF Kunming mouse assessed as reduction in amount of bacteria measure per abscess at 5 mg/kg ,ip administered every 12 hrs for 3 consecutive days; format: functional; conditions: time 3 day
Staphylococcus aureus [42] = assay: In vivo antibacterial activity against methicillin-resistant Staphylococcus aureus infected in SPF Kunming mouse assessed as reduction in amount of bacteria measured per abscess at 10 mg/kg ,ip administered every 12 hrs for 3 consecutive days; format: functional; conditions: time 3 day
Staphylococcus aureus [43] = assay: In vivo antibacterial activity against methicillin-resistant Staphylococcus aureus infected in SPF Kunming mouse assessed as reduction in neutrophils in skin tissue at 10 mg/kg ,ip administered every 12 hrs for 3 consecutive days; format: functional, organism-based; conditions: time 3.0 day
Staphylococcus aureus [44] = assay: Bactericidal activity against methicillin-resistant Staphylococcus aureus assessed as reduction in turbidity at 2 to 4 ug/ml measured after 6 hrs; format: functional, organism-based; conditions: dose 2-4 µg/ml
Staphylococcus aureus [45] = assay: Antibacterial activity against methicillin-resistant Staphylococcus aureus assessed as bacterial growth inhibition incubated for 24 hrs by Luria-Bertani broth based method; format: functional
[46] = Hemolytic activity in human RBC assessed as hemolysis incubated for 1 hr; format: toxicity, cell-based, Erythrocyte; conditions: human red blood cells
[47] = Selectivity index, ratio of HC50 for hemolytic activity in human RBC to MIC for antibacterial activity against methicillin-resistant Staphylococcus aureus assessed as bacterial growth inhibition; format: toxicity; conditions: human red blood cells

For CCCCCCCC[N+](C)(C)CCCCOc1ccc(OCCCC[N+](C)(C)CCCCCCCC)cc1.[Br-].[Br-], the MIC (Staphylococcus aureus [1]) was 0.25 µg/mL, the HC50 [2] was 1210 µg/mL and the selectivity ratio [3] was 4840.

CCCCCCN(Cc1ccc(-c2ccc(CN(CCCCCC)C(=O)[C@@H](N)CCCCN)cc2)cc1)C(=O)[C@@H](N)CCCCN.O=C(O)C(F)(F)F.O=C(O)C(F)(F)F.O=C(O)C(F)(F)F.O=C(O)C(F)(F)F gave an MIC (Staphylococcus aureus [4]) of 2 µg/mL, an MIC (Enterococcus faecalis [5]) of 2 µg/mL and an MIC (Escherichia coli [6]; 18 h) of 4 µg/mL. It also gave an MIC [7] of 4 µg/mL, an HC50 at 1 h [8] of 276 µg/mL and a selectivity ratio [9] of 138. The CC50 at 72 h [10] was 14.2 µg/mL, the MIC (Staphylococcus aureus [1]) was 3.1 µg/mL and the HC50 [11] was 230 µg/mL. For the same molecule, the selectivity ratio [12] was 74.2.

For CCCCCCN(CCCCCCCCCCCCN(CCCCCC)C(=O)[C@@H](N)CCCCN)C(=O)[C@@H](N)CCCCN.Cl.Cl.Cl.Cl, the MIC (Staphylococcus aureus [1]) was 2 µg/mL, the MIC (Enterococcus faecalis [13]) was 1 µg/mL and the MIC (Escherichia coli [14]) was 1 µg/mL. The MIC [15] was 1 µg/mL.

Work on CCCCCCN(CCCOc1ccccc1-c1ccccc1OCCCN(CCCCCC)C(=O)[C@@H](N)CCCCN)C(=O)[C@@H](N)CCCCN.Cl.Cl.Cl.Cl yielded a hemolysis at 1 h, 320 ug/ml [16] of less than 1%, an MIC (Staphylococcus aureus [4]) of 0.5 µg/mL and an MIC (Enterococcus faecalis [5]) of 0.5 µg/mL. It also gave an MIC (Escherichia coli [6]) of 2 µg/mL, an MIC [7] of 2 µg/mL and an HC50 at 1 h [8] greater than 1000 µg/mL. It also gave a selectivity ratio [9] greater than 2000, a selectivity ratio [17] greater than 2000 and a selectivity ratio [18] greater than 500. The selectivity ratio [19] was greater than 500, the MIC50 (Staphylococcus aureus [20]) was 1 µg/mL and the MIC90 (Staphylococcus aureus [20]) was 2 µg/mL. For the same molecule, the MIC50 (Enterococcus faecium) was 1 µg/mL, the MIC90 (Enterococcus faecium) was 2 µg/mL and the MIC (Escherichia coli [21]) was 2 µg/mL. It also gave an MIC (Escherichia coli [22]) of 2 µg/mL, an MIC (Escherichia coli [23]) of 2 µg/mL and an MIC (Citrobacter freundii) of 2 µg/mL. For the same molecule, the MIC (Pseudomonas aeruginosa) was 2 µg/mL, the Activity (Staphylococcus aureus [24]) was “Dose-Dependent Effect” and the Activity (Staphylococcus aureus [25]) was “Tde”. The Activity (Staphylococcus aureus [26]) was “Active”, the Activity (Staphylococcus aureus [27]) was “Active” and the “fold change (FC)” value (Staphylococcus aureus [28]) was 10. The inhibition (Staphylococcus aureus [29]) was “Active”, the inhibition (Staphylococcus aureus [30]) was “inactive” and the inhibition (Staphylococcus aureus [31]) was “inactive”. For the same molecule, the Activity (Staphylococcus aureus [32]) was “Dose-Dependent Effect”, the “fold change (FC)” value (Staphylococcus aureus [33]) was 3.4 and the “fold change (FC)” value (Staphylococcus aureus [34]) was 16. The Activity (Staphylococcus aureus [35]) was “Active”, the Activity (Staphylococcus aureus [36]) was “Active” and the CC50 at 72 h [10] was 24.2 µg/mL. The Activity [37] was “Non-Toxic”, the Activity [38] was “Non-Toxic” and the LD50 [39] was greater than 200 mg/kg/day. The half-life [40] was 4.21 h, the Activity (Staphylococcus aureus [41]) was 758577.6 CFU and the Activity (Staphylococcus aureus [42]) was 46773.51 CFU. For the same molecule, the Activity (Staphylococcus aureus [43]) was “Active” and the Activity (Staphylococcus aureus [44]) was “Active”.

Molecule CCCCCCCC[N+](C)(C)CC(=O)NCCCCCCNC(=O)C[N+](C)(C)CCCCCCCC.[Br-].[Br-] has an MIC (Staphylococcus aureus [45]) of 1.9 µg/mL, an HC50 at 1 h [46] of 780 µg/mL and a selectivity ratio [47] of 410.
